# What was measured:
# Format in all cases: biochemical
# [1] = biological target: CDK4/CycD3 (Homo sapiens, UniProt P11802); assay: Determination of CDK activity (Caliper mobility shift, FAM-P8 peptide): CDK4; settings: CDK4/CycD3; read-out: CDK4 enzymatic inhibitory activity (IC50)
# Protocol: (§1) In vitro, CDK (CDK4, CDK6, CDK1, CDK2, CDK7, and CDK9) kinase activity was tested by the following method.
# (§2) CDK and raw materials used here: CDK4/CycD3 (Carna, Cat. No 04-105, Lot. No 10CBS-0429 C, GST-CDK4(1-303end)/GST-CycD3(1-292end)); CDK6/cycD3 (Carna, Cat. No 04-107, Lot. No 09CBS-0622K, GST-CDK6(1-326(end))); CDK1/CyclinB (Millipore, Cat. 14-450k, Lot. No 25729U, His-CDK1+GST-cyclinB); CDK2/CycA2 (Carna, Cat. No 04-103, Lot. No 06CBS-3024, GST-CDK2 (1-298(end))); CDK7/CyclinH/MAT1 (Millipore, Cat. No 14-476M, Lot. No WAB0365-A, His-CDK7+GST-MAT1+cyclinH); CDK9/cyclinTl (Millipore, Cat. No 14-685K, Lot. No. 2476163-A, His-CDK9+cyclinTl); Peptide FAM-P8 (GL Biochem, Cat. No. 112396, Lot. No. P100804-XZ112396); ATP (Sigma, Cat. No. A7699-1G, CAS No. 987-65-5); DMSO (Sigma, Cat. No. D2650, Lot. No. 474382); EDTA (Sigma, Cat. No. E5134, CAS No. 60-00-4); 96-well plate (Corning, Cat. No. 3365, Lot. No. 22008026); 384-well plate (Corning, Cat. No. 3573, Lot. No. 12608008); Staurosporine (Sigma, Cat. No. S4400-1MG, Lot. No. 046K4080).
# (§3) 1. Prepared 1× Kinase Buffer and Stop Buffer for the Test
# 2) 1× Kinase Base Buffer (CDK4).
# (§4) 1) Diluted the compound to 50 times of the maximum concentration with 100% DMSO. For example, if the desired maximum inhibitory concentration is 10 μM, then a DMSO solution of 500 μM concentration is required.
# (§5) 2) Transferred the compound to a 96-well plate and serially diluted the compound from a 100% DMSO solution at a ratio of 30 μm to 60 μm for a total of 10 concentrations gradients. 3) Transferred 100 μm of 100% DMSO to two empty wells as a no compound control and a no enzyme control.
# (§6) 4) Prepared intermediate plate and transferred the compound of 10 μm concentration from the original plate to the intermediate plate, and then 90 μm of 1× kinase buffer was added and mixed by shaking for 10 min.
# (§7) 4) Preparing intermediate plate and transferred the compound of […] concentration from the original plate to the intermediate plate, and then 90 μm of 1× kinase buffer was added and mixed by shaking for 10 min.
# (§8) 1) Transferred 5 μm of each compound from the 96-well intermediate plate to a 384-well plate. For example, A1 of the 96-well plate was transferred to A1 and A2 of the 384-well plate. A2 of the 96-well plate was transferred to A3 and A4 of the 384-well plate, and so on.
# (§9) 1) Prepared a 2.5× enzyme solution: added kinase into 1× kinase base buffer.
# (§10) 2) Prepared a 2.5× peptide solution: added FAM-labeled peptide and ATP into the 1× kinase base buffer.
# (§11) 3) Transferred the 2.5× enzyme solution to the assay plate: Assay plate already contained 5 μm of 10% DMSO and transferred 10 μm of 2.5× enzyme solution to each well.
# (§12) 4) Incubated at room temperature for 10 min.
# (§13) 5) Transferred the 2.5× peptide solution to the assay plate: added 10 μm of 2.5× peptide solution to each well of the 384-well assay plate.
# (§14) 6) Kinase reaction and termination: incubated at 28° C. for a specified period and added 25 μm of stop buffer to stop the reaction.
# (§15) 5. Caliper Reading: Collect Data on Caliper.
# (§16) 1) Copied conversion data from Caliper program and Converted conversion values to inhibition values: Inhibition rate (%)=(1−OD value of the compound-OD value of the control well)/(OD value of the control empty-OD value of the control well)*100%.
# (§17) 2) Fitted the data in XLFit excel add-in version 4.3.1 to give the corresponding IC50 values.
# [2] = biological target: CDK6/cycD3 (Homo sapiens, UniProt Q00534); assay: Determination of CDK activity (Caliper mobility shift, FAM-P8 peptide): CDK6; settings: CDK6/cycD3; read-out: CDK6 enzymatic inhibitory activity (IC50)
# Protocol: as §1, §2, §3
# (§18) 1) 1× Kinase Base Buffer (CDK1, 2, and 6).
# as §4, §5, §6, §7, §8, §9, §10, §11, §12, §13, §14, §15, §16, §17
# [3] = biological target: CDK1/CyclinB (Homo sapiens, UniProt P06493); assay: Determination of CDK activity (Caliper mobility shift, FAM-P8 peptide): CDK1; settings: CDK1/CyclinB; read-out: CDK1 enzymatic inhibitory activity (IC50)
# Protocol: as §1, §3, §18, §4, §5
# (§19) 1) Transferred 5 μm of each compound from the 96-well intermediate plate to a 384-well plate. […] A2 of the 96-well plate was transferred to A3 and A4 of the 384-well plate, and so on.
# as §9, §10, §11, §12, §13, §14, §15, §16, §17
# [4] = biological target: CDK2/CycA2 (Homo sapiens, UniProt P24941); assay: Determination of CDK activity (Caliper mobility shift, FAM-P8 peptide): CDK2; settings: CDK2/CycA2; read-out: CDK2 enzymatic inhibitory activity (IC50)
# Protocol: as §1, §3, §18, §4, §5, §19, §9, §10, §11, §12, §13, §14, §15, §16, §17
# [5] = biological target: CDK7/CyclinH/MAT1 (Homo sapiens, UniProt P50613); assay: Determination of CDK activity (Caliper mobility shift, FAM-P8 peptide): CDK7; settings: CDK7/CyclinH/MAT1; read-out: CDK7 enzymatic inhibitory activity (IC50)
# Protocol: as §1, §2, §3
# (§20) 3) 1× Kinase Base Buffer (CDK7 and 9).
# as §4, §5, §6, §7, §8, §9, §10, §11, §12, §13, §14, §15, §16, §17
# [6] = biological target: CDK9/cyclinTl (Homo sapiens, UniProt P50750); assay: Determination of CDK activity (Caliper mobility shift, FAM-P8 peptide): CDK9; settings: CDK9/cyclinTl; read-out: CDK9 enzymatic inhibitory activity (IC50)
# Protocol: as §1, §3, §20, §4, §5, §19, §9, §10, §11, §12, §13, §14, §15, §16, §17
# Chain of CDK1/CyclinB (P06493 whole entry): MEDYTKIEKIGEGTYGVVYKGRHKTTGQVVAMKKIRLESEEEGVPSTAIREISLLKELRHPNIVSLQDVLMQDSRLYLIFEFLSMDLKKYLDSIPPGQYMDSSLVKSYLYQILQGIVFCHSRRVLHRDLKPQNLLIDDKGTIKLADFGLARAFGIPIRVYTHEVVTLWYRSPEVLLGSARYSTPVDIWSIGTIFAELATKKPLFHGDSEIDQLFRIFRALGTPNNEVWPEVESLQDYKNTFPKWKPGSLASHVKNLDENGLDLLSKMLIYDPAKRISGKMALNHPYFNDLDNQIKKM
# Chain of CDK1/CyclinB (P14635 whole entry partner): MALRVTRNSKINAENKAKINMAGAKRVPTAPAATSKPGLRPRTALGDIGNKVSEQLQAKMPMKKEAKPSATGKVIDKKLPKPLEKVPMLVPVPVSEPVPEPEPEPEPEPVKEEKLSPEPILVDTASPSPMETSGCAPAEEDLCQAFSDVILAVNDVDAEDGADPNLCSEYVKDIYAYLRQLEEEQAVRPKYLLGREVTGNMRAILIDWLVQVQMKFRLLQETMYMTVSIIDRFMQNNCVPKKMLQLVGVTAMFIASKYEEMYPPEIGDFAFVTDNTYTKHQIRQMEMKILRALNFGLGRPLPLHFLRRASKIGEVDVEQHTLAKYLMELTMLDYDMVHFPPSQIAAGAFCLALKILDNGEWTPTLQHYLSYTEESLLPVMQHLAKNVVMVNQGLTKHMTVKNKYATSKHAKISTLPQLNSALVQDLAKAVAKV
# Chain of CDK4/CycD3 (P11802 whole entry): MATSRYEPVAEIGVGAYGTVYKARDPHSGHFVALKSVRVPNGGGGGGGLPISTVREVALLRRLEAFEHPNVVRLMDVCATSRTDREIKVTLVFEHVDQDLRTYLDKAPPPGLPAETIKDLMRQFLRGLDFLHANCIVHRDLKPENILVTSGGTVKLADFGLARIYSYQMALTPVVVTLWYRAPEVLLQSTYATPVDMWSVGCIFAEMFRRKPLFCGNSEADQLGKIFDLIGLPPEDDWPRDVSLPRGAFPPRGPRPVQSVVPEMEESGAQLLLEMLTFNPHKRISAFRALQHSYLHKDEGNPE
# Chain of CDK4/CycD3 (P30281 whole entry partner): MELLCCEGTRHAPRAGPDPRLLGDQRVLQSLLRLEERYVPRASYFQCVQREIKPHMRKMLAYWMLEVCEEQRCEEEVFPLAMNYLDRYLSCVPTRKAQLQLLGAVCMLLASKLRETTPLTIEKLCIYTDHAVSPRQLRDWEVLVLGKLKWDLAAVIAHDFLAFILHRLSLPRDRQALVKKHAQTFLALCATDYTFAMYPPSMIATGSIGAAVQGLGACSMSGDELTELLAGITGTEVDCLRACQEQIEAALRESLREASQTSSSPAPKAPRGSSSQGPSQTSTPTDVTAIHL
# Chain of CDK9/cyclinTl (P50750 whole entry): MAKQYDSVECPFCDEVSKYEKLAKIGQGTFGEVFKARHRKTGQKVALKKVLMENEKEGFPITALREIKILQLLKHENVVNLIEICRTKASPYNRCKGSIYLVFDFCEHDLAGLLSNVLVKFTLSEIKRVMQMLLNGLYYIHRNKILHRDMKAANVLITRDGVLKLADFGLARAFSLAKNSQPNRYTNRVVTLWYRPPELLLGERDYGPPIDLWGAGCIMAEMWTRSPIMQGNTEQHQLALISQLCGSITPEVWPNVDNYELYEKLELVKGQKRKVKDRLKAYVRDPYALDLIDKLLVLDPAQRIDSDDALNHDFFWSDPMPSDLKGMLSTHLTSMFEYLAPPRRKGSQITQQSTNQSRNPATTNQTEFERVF
# Chain of CDK9/cyclinTl (O60563 whole entry partner): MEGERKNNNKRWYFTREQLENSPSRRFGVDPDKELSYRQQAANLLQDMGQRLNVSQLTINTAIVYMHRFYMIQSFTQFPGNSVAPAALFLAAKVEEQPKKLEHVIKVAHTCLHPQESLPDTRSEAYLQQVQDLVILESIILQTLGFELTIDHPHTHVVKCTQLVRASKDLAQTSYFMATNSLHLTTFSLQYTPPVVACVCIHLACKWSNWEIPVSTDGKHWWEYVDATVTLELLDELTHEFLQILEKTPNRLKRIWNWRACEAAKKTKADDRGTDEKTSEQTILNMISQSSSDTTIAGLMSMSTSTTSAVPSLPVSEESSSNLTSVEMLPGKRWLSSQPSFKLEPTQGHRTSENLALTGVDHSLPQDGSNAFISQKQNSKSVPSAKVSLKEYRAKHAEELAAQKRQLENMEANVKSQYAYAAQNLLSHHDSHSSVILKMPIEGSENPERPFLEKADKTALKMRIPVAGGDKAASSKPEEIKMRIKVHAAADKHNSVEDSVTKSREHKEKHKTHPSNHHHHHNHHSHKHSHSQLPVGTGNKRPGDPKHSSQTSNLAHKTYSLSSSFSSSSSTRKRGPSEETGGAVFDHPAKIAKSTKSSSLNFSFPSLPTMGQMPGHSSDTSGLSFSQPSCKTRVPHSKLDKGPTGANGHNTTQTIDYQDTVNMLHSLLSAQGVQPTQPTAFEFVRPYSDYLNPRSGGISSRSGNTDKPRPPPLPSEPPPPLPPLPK
# Chain of CDK7/CyclinH/MAT1 (P50613 whole entry): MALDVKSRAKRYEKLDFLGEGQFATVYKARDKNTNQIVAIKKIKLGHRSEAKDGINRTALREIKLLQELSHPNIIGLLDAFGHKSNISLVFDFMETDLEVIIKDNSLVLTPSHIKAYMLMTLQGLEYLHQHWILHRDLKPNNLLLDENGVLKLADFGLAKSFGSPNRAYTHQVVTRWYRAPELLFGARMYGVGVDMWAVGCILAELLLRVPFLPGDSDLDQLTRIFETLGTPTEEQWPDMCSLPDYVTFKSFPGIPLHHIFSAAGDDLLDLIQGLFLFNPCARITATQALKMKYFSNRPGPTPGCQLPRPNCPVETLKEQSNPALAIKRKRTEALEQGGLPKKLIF
# Chain of CDK7/CyclinH/MAT1 (P51946 whole entry partner): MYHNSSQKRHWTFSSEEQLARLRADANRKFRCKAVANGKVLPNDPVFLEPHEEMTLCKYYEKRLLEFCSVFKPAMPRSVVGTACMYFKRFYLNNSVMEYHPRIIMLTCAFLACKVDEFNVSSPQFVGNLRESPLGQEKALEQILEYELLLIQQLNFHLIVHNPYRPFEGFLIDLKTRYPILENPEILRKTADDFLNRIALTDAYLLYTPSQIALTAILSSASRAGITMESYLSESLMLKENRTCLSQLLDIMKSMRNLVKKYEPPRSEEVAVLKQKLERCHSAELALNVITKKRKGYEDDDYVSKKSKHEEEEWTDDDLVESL
# Chain of CDK7/CyclinH/MAT1 (P51948 whole entry partner): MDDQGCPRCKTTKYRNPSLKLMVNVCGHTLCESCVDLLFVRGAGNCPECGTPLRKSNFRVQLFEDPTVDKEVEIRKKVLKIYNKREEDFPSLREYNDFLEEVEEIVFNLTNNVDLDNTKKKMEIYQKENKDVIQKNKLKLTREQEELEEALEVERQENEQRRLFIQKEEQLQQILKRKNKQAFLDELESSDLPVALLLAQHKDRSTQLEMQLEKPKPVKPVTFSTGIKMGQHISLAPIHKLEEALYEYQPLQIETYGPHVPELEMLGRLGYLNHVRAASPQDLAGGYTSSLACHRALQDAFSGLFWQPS
# Chain of CDK6/cycD3 (Q00534 whole entry): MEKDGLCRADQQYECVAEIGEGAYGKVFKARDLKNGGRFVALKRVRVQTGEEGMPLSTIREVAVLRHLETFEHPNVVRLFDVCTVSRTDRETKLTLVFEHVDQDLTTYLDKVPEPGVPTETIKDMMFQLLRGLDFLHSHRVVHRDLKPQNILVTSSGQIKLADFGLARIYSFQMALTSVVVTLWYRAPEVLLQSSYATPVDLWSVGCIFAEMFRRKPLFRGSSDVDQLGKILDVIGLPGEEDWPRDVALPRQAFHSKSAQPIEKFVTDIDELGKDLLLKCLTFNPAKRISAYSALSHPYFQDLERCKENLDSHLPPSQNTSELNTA
# Chain of CDK6/cycD3 (P30281 whole entry partner): as the sequence (P30281 whole entry partner) above
SMILES,IC50 [1],IC50 [2],IC50 [3],IC50 [4],IC50 [5],IC50 [6]
"Cc1nc2c(F)cc(-c3nc(Nc4ccc(C(C)C5CCNCC5)cn4)ncc3F)cc2n1C(C)C (single isomer, unassigned) [Example 19, (R or S)-5-fluoro-4-(4-fluoro-1-isopropyl-2-methyl-1H-benzo[d]imidazol-6-yl)-N-(5-(1-(piperidin-4-yl)ethyl)pyridin-2-yl) pyrimidin-2-amine]",100 to 500 nM,< 100 nM,100 to 500 nM,100 to 500 nM,1000 to 10000 nM,100 to 500 nM
"Cc1nc2c(F)cc(-c3nc(Nc4ccc(C(C)C5CCNCC5)cn4)ncc3F)cc2n1C(C)C (single isomer, unassigned) [Example 20, (R or S)-5-fluoro-4-(4-fluoro-1-isopropyl-2-methyl-1H-benzo[d]imidazol-6-yl)-N-(5-(1-(piperidin-4-yl)ethyl)pyridin-2-yl) pyrimidin-2-amine]",< 100 nM,100 to 500 nM,500 to 1000 nM,100 to 500 nM,1000 to 10000 nM,500 to 1000 nM
"Cc1nc2c(F)cc(-c3nc(Nc4ccc([C@H](C)C5CCN(C)CC5)cn4)ncc3F)cc2n1C(C)C (single isomer, unassigned) [Example 21]",< 100 nM,< 100 nM,100 to 500 nM,< 100 nM,1000 to 10000 nM,100 to 500 nM
"Cc1nc2c(F)cc(-c3nc(Nc4ccc([C@@H](C)C5CCN(C)CC5)cn4)ncc3F)cc2n1C(C)C (single isomer, unassigned) [Example 22]",< 100 nM,100 to 500 nM,500 to 1000 nM,100 to 500 nM,1000 to 10000 nM,500 to 1000 nM
"CCN1CCC(C(O)c2ccc(Nc3ncc(F)c(-c4cc(F)c5nc(C)n(C(C)C)c5c4)n3)nc2)CC1 (single isomer, unassigned) [Example 41, (R or S)-(1-ethylpiperidin-4-yl)(6-((5-fluoro-4-(4-fluoro-1-isopropyl-2-methyl-1H-benzo [d]imidazol-6-yl)pyrimidin-2-yl)amino)pyridin-3-yl) methanol]",< 100 nM,< 100 nM,100 to 500 nM,< 100 nM,500 to 1000 nM,100 to 500 nM
"CCN1CCC(C(OC(C)=O)c2ccc(Nc3ncc(F)c(-c4cc(F)c5nc(C)n(C(C)C)c5c4)n3)nc2)CC1 (single isomer, unassigned) [Example 71, (R or S)-(1-ethylpiperidin-4-yl) (6-((5-fluoro-4-(4-fluoro-1-isopropyl-2-methyl-1H-benzo[d]imidazol-6-yl)pyrimidin-2-yl)amino)pyridin-3-yl) methyl acetate]",< 100 nM,< 100 nM,100 to 500 nM,< 100 nM,1000 to 10000 nM,100 to 500 nM
"CCN1CCC(C(OC(C)=O)c2ccc(Nc3ncc(F)c(-c4cc(F)c5nc(C)n(C(C)C)c5c4)n3)nc2)CC1 (single isomer, unassigned) [Example 72, (R or S)-(1-ethylpiperidin-4-yl) (6-((5-fluoro-4-(4-fluoro-1-isopropyl-2-methyl-1H-benzo[d]imidazol-6-yl)pyrimidin-2-yl)amino)pyridin-3-yl) methyl acetate]",< 100 nM,< 100 nM,100 to 500 nM,< 100 nM,1000 to 10000 nM,100 to 500 nM

# Now from value to compound:
IC50 [1],IC50 [2],IC50 [3],IC50 [4],IC50 [5],IC50 [6],SMILES
< 100 nM,1000 to 10000 nM,10000 to 100000 nM,1000 to 10000 nM,1000 to 10000 nM,1000 to 10000 nM,"CCC(c1ccc(Nc2ncc(F)c(-c3cc(F)c4nc(C)n(C(C)C)c4c3)n2)nc1)N1CCN(CC)CC1 (racemic) [Example 1, N-(5-(1-(4-ethylpiperazin-1-yl)propyl)pyridin-2-yl)-5-fluoro-4-(4-fluoro-1-isopropyl-2-methyl-1H-benzo[d]imidazol-6-yl)pyrimidin-2-amine]"
< 100 nM,< 100 nM,100 to 500 nM,< 100 nM,1000 to 10000 nM,100 to 500 nM,"CCN1CCC(C(C)c2ccc(Nc3ncc(F)c(-c4cc(F)c5nc(C)n(C(C)C)c5c4)n3)nc2)CC1 (racemic) [Example 16, N-(5-(1-(1-ethylpiperidin-4-yl)ethyl)pyridin-2-yl)-5-fluoro-4-(4-fluoro-1-isopropyl-2-methyl-1H-benzo[d]imidazol-6-yl)pyrimidin-2-amine]"
< 100 nM,< 100 nM,< 100 nM,< 100 nM,100 to 500 nM,< 100 nM,"CCN1CCC(C(O)c2ccc(Nc3ncc(F)c(-c4cc(F)c5nc(C)n(C(C)C)c5c4)n3)nc2)CC1 (racemic) [Example 39, (1-Ethylpiperidin-4-yl)(6-((5-fluoro-4-(4-fluoro-1-isopropyl-2-methyl-1H-benzo[d]imidazol-6-yl)pyrimidin-2-yl)amino)pyridin-3-yl)methanol]"
< 100 nM,100 to 500 nM,10000 to 100000 nM,1000 to 10000 nM,1000 to 10000 nM,1000 to 10000 nM,"CCC(c1ccc(Nc2ncc(F)c(-c3cc(F)c4nc(C)n(C(C)C)c4c3)n2)nc1)N1CCN(CC)CC1 (single isomer, unassigned) [Example 2, (R or S)—N-(5-(1-(4-ethylpiperazin-1-yl)propyl)pyridin-2-yl)-5-fluoro-4-(4-fluoro-1-isopropyl-2-methyl-1H-benzo[d]imidazol-6-yl) pyrimidin-2-amine]"
< 100 nM,100 to 500 nM,10000 to 100000 nM,10000 to 100000 nM,1000 to 10000 nM,10000 to 100000 nM,"CCC(c1ccc(Nc2ncc(F)c(-c3cc(F)c4nc(C)n(C(C)C)c4c3)n2)nc1)N1CCN(CC)CC1 (single isomer, unassigned) [Example 3, (R or S)—N-(5-(1-(4-ethylpiperazin-1-yl)propyl)pyridin-2-yl)-5-fluoro-4-(4-fluoro-1-isopropyl-2-methyl-1H-benzo[d]imidazol-6-yl) pyrimidin-2-amine]"
< 100 nM,100 to 500 nM,500 to 1000 nM,100 to 500 nM,1000 to 10000 nM,500 to 1000 nM,"CCN1CCC(C(C)c2ccc(Nc3ncc(F)c(-c4cc(F)c5nc(C)n(C(C)C)c5c4)n3)nc2)CC1 (single isomer, unassigned) [Example 18, (R or S)—N-(5-(1-(1-ethylpiperidin-4-yl)ethyl)pyridin-2-yl)-5-fluoro-4-(4-fluoro-1-isopropyl-2-methyl-1H-benzo[d]imidazol-6-yl) pyrimidin-2-amine]"

# Source: patent US11179391B2, “Compound with kinase inhibitory activity and preparation method and use thereof” (priority 2017, dated 2021)
